{"source": "paper PMC11091889", "about": "“Silver Organometallics that are Highly Potent Thioredoxin and Glutathione Reductase Inhibitors: Exploring the Correlations of Solution Chemistry with the Strong Antibacterial Effects” (ACS Infectious Diseases, 2024)", "key": {"[1]": {"assay": "Conductometry: molar conductivity of silver complexes in DMSO", "format": "physicochemical", "conditions": "1.0 mM in DMSO, calculated as monocarbene (NHC)AgX", "method": "Since both the neutral monocarbene and the ionic biscarbene form of the complexes may exist in various proportions in the solution, conductometry studies were performed to reveal the dominant structure. The molar conductivity of 1.0 mM solutions of each complex in DMSO was determined after different periods up to 24 h using AgNO3 as 1:1 electrolyte reference (see Table 1). According to the literature, the expected range of molar conductivity for 1:1 electrolytes in DMSO is 35–90 S cm^2 mol^–1.[45],[46]\nConductivity measurements were performed using an Apera Instruments EC9500 conductivity meter. Solutions (as indicated, otherwise 1.0 mM) of all compounds were prepared using freshly distilled DMSO with a specific electrical conductivity of ≤3 × 10^–8 S cm^–1. The conductivities were measured at 25 ± 2 °C immediately after complete dissolution and after 24 h."}, "[2]": {"test_system": "E. coli (DSM1116, ATCC 9637)", "assay": "microbe, parasite or virus in culture", "format": "cell-based, Escherichia coli", "conditions": "n = 3, MHB; for EC50 / MIC E. coli: mean ± standard error; for MIC E. coli / MIC E. coli (value in brackets): 22 h", "method": "(§1) The antibacterial effect of the silver NHC complexes and selected ligands was evaluated in two Gram-positive [Enterococcus faecium, methicillin resistant S. aureus, (MRSA)] and in four Gram-negative (Acinetobacter baumannii, Escherichia coli, Klebsiella pneumoniae, and Pseudomonas aeruginosa) pathogenic bacterial strains using broth microdilution assays. The resulting minimal inhibitory concentrations (MICs, Table 2) and EC50 (Table S6) were determined by a curve fitting procedure. Silver nitrate (AgNO3), SSD, and various antibiotics were used as references.\n(§2) The following strains of ESKAPE panel were utilized and maintained at 37 °C in MHB (21 g/L Müller Hinton broth, pH 7.4) or TSY (30 g/L trypticase soy broth, 3 g/L yeast extract, pH 7.0–7.2) media: A. baumannii (DSM 30007, ATCC 19606), E. coli (DSM1116, ATCC 9637), K. pneumoniae (DSM 11678, ATCC33495), P. aeruginosa PA7 (DSM 24068) in MHB; E. faecium (DSM 20477, ATCC 19434), and S. aureus MRSA (DSM 11822, ICB 25701) in TSY. MIC values were determined following a standardized protocol in broth microdilution assays. The compounds and reference substances (AgNO3 and SSD) were serially diluted from 64 to 1 μg/mL. Starting inocula of 2–8 × 10^5 CFU/mL in MHB or TSY media at 37 °C were used, and serial dilutions were carried out in 96-well microtiter plates in duplicate. After incubation of the plates for 22 h at 37 °C, the absorbance at 600 nm was measured using The Spark multimode microplate reader (Tecan Trading AG). The MIC values for the tested compounds were determined in three independent experiments and presented in μM with standard errors and also in μg/mL. Amikacin (P. aeruginosa), linezolid (S. aureus), and ciprofloxacin (all other strains) served as positive controls. The MIC and EC50 values were determined by curve fitting with Sigma Plot. To determine the effect of the culture medium on the activity of silver compounds, the assay was performed using MHB, TSY, or DMEM (Gibco). To observe the effect of individual components of TSY medium, antibacterial tests were performed using MHB with addition of tryptone (17 g/L) or yeast extract (3 g/L, both were purchased from Sigma)."}, "[3]": {"test_system": "P. aeruginosa PA7 (DSM 24068)", "assay": "microbe, parasite or virus in culture", "format": "cell-based, Pseudomonas aeruginosa", "conditions": "n = 3, MHB; for MIC P. aeruginosa / EC50: mean ± standard error; for MIC P. aeruginosa / MIC P. aeruginosa (value in brackets): 22 h; for EC50: read-out: EC50 P. aeruginosa", "method": "as §1, §2"}, "[4]": {"test_system": "K. pneumoniae (DSM 11678, ATCC33495)", "assay": "Broth microdilution antibacterial assay", "format": "cell-based, Klebsiella pneumoniae", "conditions": "n = 3, MHB; for MIC K. pneumoniae / EC50: mean ± standard error; for MIC K. pneumoniae / MIC K. pneumoniae (value in brackets): 22 h; for EC50: read-out: EC50 K. pneumoniae", "method": "as §1, §2"}, "[5]": {"test_system": "A. baumannii (DSM 30007, ATCC 19606)", "assay": "Broth microdilution antibacterial assay", "format": "cell-based, Acinetobacter baumannii", "conditions": "n = 3, MHB; for MIC A. baumannii / EC50: mean ± standard error; for MIC A. baumannii / MIC A. baumannii (value in brackets): 22 h; for EC50: read-out: EC50 A. baumannii", "method": "as §1, §2"}, "[6]": {"test_system": "S. aureus MRSA (DSM 11822, ICB 25701)", "assay": "microbe, parasite or virus in culture", "format": "cell-based, methicillin resistant S. aureus", "conditions": "n = 3, TSY; for MIC MRSA / EC50: mean ± standard error; for MIC MRSA / MIC MRSA (value in brackets): 22 h; for EC50: read-out: EC50 MRSA", "method": "as §1\nThe importance of the culture medium used in antibacterial assays has been pointed out for antibiotics and in particular for silver.[53]−[55] In our recent studies, tryptic soy yeast (TSY) broth has been used for growing Gram-positive bacteria. Two components thereof, tryptone and yeast extract, have been reported to affect the antibacterial activity of silver nitrate.[55] Moreover, such an effect was also observed for other media containing at least one of those components.[11],[53] […] Silver nitrate served as a reference, and three different growth media were studied, namely, Müller-Hinton Broth (MHB, commonly used for Gram-negative bacteria), TSY broth (commonly used for Gram-positive bacteria), and DMEM supplemented with 10% FCS (commonly used for growth of mammalian and human cells).\nas §2"}, "[7]": {"test_system": "E. faecium (DSM 20477, ATCC 19434)", "assay": "Broth microdilution antibacterial assay", "format": "cell-based, Enterococcus faecium", "conditions": "n = 3, TSY; for MIC E. faecium / EC50: mean ± standard error; for MIC E. faecium / MIC E. faecium (value in brackets): 22 h; for EC50: read-out: EC50 E. faecium", "method": "as §1, §2"}}}
{"smiles": "CCn1[c](=[Ag][Cl])n(Cc2ccccn2)c2ccccc21", "note": "[2a, Chlorido (1-Ethyl-3-(pyridin-2-ylmethyl)-benzimidazol-2-ylidene) Silver(I)]", "values": [{"measurement": "Molar conductivity ΛM", "setting": "[1]; 1 h after dissolution", "result": 3.47, "unit": "S cm^2 mol^–^1"}, {"measurement": "Molar conductivity ΛM", "setting": "[1]; 24 h after dissolution", "result": 3.03, "unit": "S cm^2 mol^–^1"}, {"measurement": "EC50", "setting": "[2]", "result": "33.3 ± 4.7", "unit": "µM"}, {"measurement": "MIC E. coli", "setting": "[2]", "result": "56.0 ± 14.0", "unit": "µM"}, {"measurement": "MIC E. coli (value in brackets)", "setting": "[2]", "result": 21, "unit": "µg/mL"}, {"measurement": "MIC P. aeruginosa", "setting": "[3]", "result": "10.5 ± 0.0", "unit": "µM"}, {"measurement": "EC50", "setting": "[3]", "result": "6.4 ± 0.5", "unit": "µM"}, {"measurement": "MIC P. aeruginosa (value in brackets)", "setting": "[3]", "result": 4, "unit": "µg/mL"}, {"measurement": "MIC K. pneumoniae", "setting": "[4]", "result": "17.5 ± 3.5", "unit": "µM"}, {"measurement": "EC50", "setting": "[4]", "result": "12 ± 0.9", "unit": "µM"}, {"measurement": "MIC K. pneumoniae (value in brackets)", "setting": "[4]", "result": 7, "unit": "µg/mL"}, {"measurement": "MIC A. baumannii", "setting": "[5]", "result": "10.5 ± 0.0", "unit": "µM"}, {"measurement": "EC50", "setting": "[5]", "result": "2.4 ± 0.1", "unit": "µM"}, {"measurement": "MIC A. baumannii (value in brackets)", "setting": "[5]", "result": 4, "unit": "µg/mL"}, {"measurement": "MIC MRSA", "setting": "[6]", "result": "168 ± 0.0", "unit": "µM"}, {"measurement": "EC50", "setting": "[6]", "result": "98.5 ± 0.8", "unit": "µM"}, {"measurement": "MIC MRSA (value in brackets)", "setting": "[6]", "result": 64, "unit": "µg/mL"}, {"measurement": "MIC E. faecium", "setting": "[7]", "result": "168 ± 0.0", "unit": "µM"}, {"measurement": "EC50", "setting": "[7]", "result": "132 ± 6.8", "unit": "µM"}, {"measurement": "MIC E. faecium (value in brackets)", "setting": "[7]", "result": 64, "unit": "µg/mL"}]}
{"smiles": "CCn1[c](=[Ag][Br])n(Cc2ccccn2)c2ccccc21", "note": "[2b, Bromido (1-Ethyl-3-(pyridin-2-ylmethyl)-benzimidazol-2-ylidene) Silver(I)]", "values": [{"measurement": "Molar conductivity ΛM", "setting": "[1]; 1 h after dissolution", "result": 5.47, "unit": "S cm^2 mol^–^1"}, {"measurement": "Molar conductivity ΛM", "setting": "[1]; 24 h after dissolution", "result": 5.07, "unit": "S cm^2 mol^–^1"}, {"measurement": "EC50", "setting": "[2]", "result": "35.6 ± 9.4", "unit": "µM"}, {"measurement": "MIC E. coli", "setting": "[2]", "result": "50.2 ± 12.5", "unit": "µM"}, {"measurement": "MIC E. coli (value in brackets)", "setting": "[2]", "result": 21, "unit": "µg/mL"}, {"measurement": "MIC P. aeruginosa", "setting": "[3]", "result": "9.4 ± 0.0", "unit": "µM"}, {"measurement": "EC50", "setting": "[3]", "result": "6.9 ± 0.5", "unit": "µM"}, {"measurement": "MIC P. aeruginosa (value in brackets)", "setting": "[3]", "result": 4, "unit": "µg/mL"}, {"measurement": "MIC K. pneumoniae", "setting": "[4]", "result": "15.7 ± 3.1", "unit": "µM"}, {"measurement": "EC50", "setting": "[4]", "result": "9 ± 1", "unit": "µM"}, {"measurement": "MIC K. pneumoniae (value in brackets)", "setting": "[4]", "result": 7, "unit": "µg/mL"}, {"measurement": "MIC A. baumannii", "setting": "[5]", "result": "12.5 ± 3.1", "unit": "µM"}, {"measurement": "EC50", "setting": "[5]", "result": "2.2 ± 0.3", "unit": "µM"}, {"measurement": "MIC A. baumannii (value in brackets)", "setting": "[5]", "result": 5, "unit": "µg/mL"}, {"measurement": "MIC MRSA", "setting": "[6]", "result": "151 ± 0.0", "unit": "µM"}, {"measurement": "EC50", "setting": "[6]", "result": "88.5 ± 1.6", "unit": "µM"}, {"measurement": "MIC MRSA (value in brackets)", "setting": "[6]", "result": 64, "unit": "µg/mL"}, {"measurement": "MIC E. faecium", "setting": "[7]", "result": "151 ± 0.0", "unit": "µM"}, {"measurement": "EC50", "setting": "[7]", "result": "128 ± 0.9", "unit": "µM"}, {"measurement": "MIC E. faecium (value in brackets)", "setting": "[7]", "result": 64, "unit": "µg/mL"}]}
{"smiles": "[Cl][Ag][c]1n(Cc2ccccc2)c2ccccc2[n+]1Cc1ccccn1", "note": "[5a]", "values": [{"measurement": "Molar conductivity ΛM", "setting": "[1]; 1 h after dissolution", "result": 4.24, "unit": "S cm^2 mol^–^1"}, {"measurement": "Molar conductivity ΛM", "setting": "[1]; 24 h after dissolution", "result": 3.70, "unit": "S cm^2 mol^–^1"}, {"measurement": "EC50", "setting": "[2]", "result": "35.1 ± 1.1", "unit": "µM"}, {"measurement": "MIC E. coli", "setting": "[2]", "result": "60.2 ± 12.0", "unit": "µM"}, {"measurement": "MIC E. coli (value in brackets)", "setting": "[2]", "result": 27, "unit": "µg/mL"}, {"measurement": "MIC P. aeruginosa", "setting": "[3]", "result": "30.1 ± 6.0", "unit": "µM"}, {"measurement": "EC50", "setting": "[3]", "result": "16 ± 1.7", "unit": "µM"}, {"measurement": "MIC P. aeruginosa (value in brackets)", "setting": "[3]", "result": 13, "unit": "µg/mL"}, {"measurement": "MIC K. pneumoniae", "setting": "[4]", "result": "18.1 ± 0.0", "unit": "µM"}, {"measurement": "EC50", "setting": "[4]", "result": "8.5 ± 1", "unit": "µM"}, {"measurement": "MIC K. pneumoniae (value in brackets)", "setting": "[4]", "result": 8, "unit": "µg/mL"}, {"measurement": "MIC A. baumannii", "setting": "[5]", "result": "9.0 ± 0.0", "unit": "µM"}, {"measurement": "EC50", "setting": "[5]", "result": 1.7, "unit": "µM"}, {"measurement": "MIC A. baumannii (value in brackets)", "setting": "[5]", "result": 4, "unit": "µg/mL"}, {"measurement": "MIC MRSA", "setting": "[6]", "result": "145 ± 0.0", "unit": "µM"}, {"measurement": "EC50", "setting": "[6]", "result": "82.9 ± 1.5", "unit": "µM"}, {"measurement": "MIC MRSA (value in brackets)", "setting": "[6]", "result": 64, "unit": "µg/mL"}, {"measurement": "MIC E. faecium", "setting": "[7]", "result": "145 ± 0.0", "unit": "µM"}, {"measurement": "EC50", "setting": "[7]", "result": "119 ± 3.6", "unit": "µM"}, {"measurement": "MIC E. faecium (value in brackets)", "setting": "[7]", "result": 64, "unit": "µg/mL"}]}
